Assay results from ChEMBL document CHEMBL3243958, “Bufotenine esters” (J Med Chem, 1979).

Legend:
[1] = Chloroform to aqueous buffer partition coefficient, log P of the compound at pH 7.4 by shake flask method; format: physicochemical
[2] = biological target: Serotonin 1 (5-HT1) receptor (Rattus norvegicus, UniProt P28564+P30940+P19327+P28565); assay: Antagonist activity at 5-HT1 receptor in Sprague-Dawley rat assessed as inhibition of 5-HT-induced stomach fundus contraction
[3] = Stability in Sprague-Dawley rat stomach fundus strip assessed as hydrolysis; format: ADME, tissue-based; conditions: read-out: Drug metabolism
[4] = Chemical stability of the compound assessed as ester hydrolysis in Tyrode's solution at 37 degC for 10 to 15 mins; format: physicochemical; conditions: read-out: Drug metabolism

Row | SMILES | logP [1] | pA2 [2] | metabolised [3] [%] | degraded [4] [%]
1 | CN(C)CCc1c[nH]c2ccccc12 | 2.61 | 6 | – | –
2 | CC(=O)Oc1ccc2[nH]cc(CCN(C)C)c2c1.O=C(O)C(=O)O | 2.31 | 7.71 | < 5 | 5
3 | CCC(=O)Oc1ccc2[nH]cc(CCN(C)C)c2c1.O=C(O)C(=O)O | 5.6 | – | 15 | 5
4 | CCCC(=O)Oc1ccc2[nH]cc(CCN(C)C)c2c1.O=C(O)C(=O)O | – | 7.32 | 15 | 5
5 | CC(C)C(=O)Oc1ccc2[nH]cc(CCN(C)C)c2c1 | – | – | 15 | 1
6 | CN(C)CCc1c[nH]c2ccc(OC(=O)C(C)(C)C)cc12 | – | – | 15 | 1
7 | CN(C)CCc1c[nH]c2ccc(O)cc12 [BUFOTENINE] | 0.06 | 7.41 | – | –
8 | COc1ccc2[nH]cc(CCN(C)C)c2c1 [MEBUFOTENIN] | 3.3 | – | – | –
